In patent publication US9206130B2, “Quinoline derivatives as AXL kinase inhibitors” (Max-Planck-Gesellschaft zur Förderung der Wissenschaften …, priority 2008, dated 2015) one finds IC50 and melting point data, which are given here for 23 compounds.

Series [1] addresses T1, wild type AXL (wtAXL) receptor tyrosine kinase (Homo sapiens, UniProt P30530).
T1 construct: WtAXL cDNA was cloned into vector pLXSN(ESK) and transfected into Phoenix E packaging cells; expressed in transfected cells; host or cells: NIH3T3 N7 mouse fibroblasts, retrovirally infected (clone 22)
T1 sequence (P30530 26-894): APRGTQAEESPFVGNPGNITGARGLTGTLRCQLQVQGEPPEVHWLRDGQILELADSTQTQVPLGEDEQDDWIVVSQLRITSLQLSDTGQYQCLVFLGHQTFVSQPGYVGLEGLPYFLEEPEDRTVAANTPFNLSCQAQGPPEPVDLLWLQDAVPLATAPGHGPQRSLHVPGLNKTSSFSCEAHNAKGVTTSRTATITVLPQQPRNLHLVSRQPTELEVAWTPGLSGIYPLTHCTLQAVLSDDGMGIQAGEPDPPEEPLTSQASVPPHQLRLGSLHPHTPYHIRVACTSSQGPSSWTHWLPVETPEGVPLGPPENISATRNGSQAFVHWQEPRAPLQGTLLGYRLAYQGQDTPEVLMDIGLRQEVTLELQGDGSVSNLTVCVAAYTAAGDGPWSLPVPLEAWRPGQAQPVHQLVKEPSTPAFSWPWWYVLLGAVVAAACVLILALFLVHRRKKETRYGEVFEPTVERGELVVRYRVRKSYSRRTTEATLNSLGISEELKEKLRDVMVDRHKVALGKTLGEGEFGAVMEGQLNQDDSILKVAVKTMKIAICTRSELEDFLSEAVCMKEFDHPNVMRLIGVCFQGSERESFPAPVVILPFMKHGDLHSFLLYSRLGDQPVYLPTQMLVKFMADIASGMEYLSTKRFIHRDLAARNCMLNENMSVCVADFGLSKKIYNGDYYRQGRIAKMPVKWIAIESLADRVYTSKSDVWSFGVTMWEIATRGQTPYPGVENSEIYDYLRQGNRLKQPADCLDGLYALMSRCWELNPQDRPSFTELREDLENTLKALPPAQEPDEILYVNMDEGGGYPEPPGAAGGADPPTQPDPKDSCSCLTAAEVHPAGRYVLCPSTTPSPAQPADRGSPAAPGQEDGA
Nature of the series: NIH-3T3-AXL cellular tyrosine kinase assay (inhibition of AXL phosphorylation). It counts as cell-based. Particulars: AXL phosphorylation in NIH-3T3-AXL (clone 22) cells, serum-depleted, 2 h with compound, immunoprecipitation / anti-phosphotyrosine blot. Here is the method:
3) Inhibitory Activity of Compounds on Axl Phosphorylation in NIH-3T3-AXL Cellular Tyrosine Kinase Assay
The viral supernatant was collected and used to infect target cells NIH3T3 N7. Monoclonal NIH3T3-AXL cell lines stably expressing wtAXL were generated by selecting retrovirally infected cells in medium containing puromycin (2 μg/ml) and subsequent clonal separation.
NIH-3T3-AXL Cellular Kinase Assay
Serial dilutions of compounds were added, and the cells were further incubated or 2 h. […] The clarified cell lysate (10 min at 13000 rpm at 4° C.) were used for immunoprecipitation. Equal amounts of protein were mixed with 2 μg anti-AXL polyclonal antibody (homemade) and 20 μl Protein A sepharose beads, and rotated for 6 hr at 4° C. After immunoprecipitation, the beads were washed three times with 1×HNTG (50 mM HEPES (pH 7.5), 150 mM NaCl, 10% Glycerol, 0.2% Triton X-100). The final pellet was suspended in 20 μl 2× Laemmli buffer, and boiled for 5 min at 100° C. […] The membrane was then incubated with anti-phosphotyrosine antibody (4G10) overnight at 4° C. followed by washing with 1×TBST buffer three times. After incubating membrane with HRP-conjugated anti-mouse secondary antibody for 1 hour at room temperature followed by washing with 1×TBST buffer three times, the proteins were visualized by ECL.

Where a name gives a salt, the structure may show the parent alone.

By IC50 is commonly meant the concentration at which inhibition is half-maximal. What is called melting point is the temperature of the solid-liquid transition.

Compound `COc1cc2nccc(Oc3ccc(NS(=O)(=O)c4cccc(Oc5ccccc5)c4)cc3OC)c2cc1OC` [Example A120, N-[4-(6,7-Dimethoxy-quinolin-4-yloxy)-3-methoxy-phenyl]-3-phenoxy-benzenesulfonamide] had a melting point of 106 to 107 °C. Moreover, the concentration for half-maximal inhibition (IC50) in series [1] is > 10 µM.

Consider `CCn1cc(S(=O)(=O)Nc2ccc(Oc3ccnc4cc(OC)c(OC)cc34)cc2F)cn1` [Example A31, 1-Ethyl-1H-pyrazole-4-sulfonic acid [4-(6,7-dimethoxy-quinolin-4-yloxy)-2-fluoro-phenyl]-amide], for which the melting point was 211 to 213 °C. Also, the 50% inhibitory concentration (IC50) in series [1] was > 10 µM.

As for `COc1cc2nccc(Oc3ccc(NS(=O)(=O)c4cc(Cl)cc(Cl)c4)c(F)c3)c2cc1OC` [Example A43, 3,5-Dichloro-N-[4-(6,7-dimethoxy-quinolin-4-yloxy)-2-fluoro-phenyl]-benzenesulfonamide], the melting point was in the range of 240 to 242 °C. Besides, in series [1], the IC50 is < 1 µM.

In turn, `COc1cc2nccc(Oc3ccc(NS(=O)(=O)c4ccc(Br)c(Cl)c4)c(C)c3)c2cc1OC` [Example A152, 4-Bromo-3-chloro-N-[4-(6,7-dimethoxy-quinolin-4-yloxy)-2-methyl-phenyl]-benzenesulfonamide] returned a melting point of 212 to 213 °C. In series [1], the half-maximal inhibitory concentration (IC50) was > 10 µM.

As to `COc1cccc(S(=O)(=O)Nc2ccc(Oc3cc(C)nc4ccc(F)cc34)cc2F)c1` [Example B3, N-[2-Fluoro-4-(6-fluoro-2-methyl-quinolin-4-yloxy)-phenyl]-3-methoxy-benzenesulfonamide], the melting point fell in the range of 150 to 151 °C. For the same compound, the half-maximal inhibitory concentration (IC50) in series [1] stood at 8 µM.

`COc1cc2c(Oc3ccc(NS(=O)(=O)c4ccccc4C(F)(F)F)c(C)c3)ccnc2cc1OCCN1CCOCC1` [Example D11, N-{4-[6-Methoxy-7-(2-morpholin-4-yl-ethoxy)-quinolin-4-yloxy]-2-methyl-phenyl}-2-trifluoromethyl-benzenesulfonamide] gave a melting point of 127 to 130 °C. Further, the concentration for half-maximal inhibition (IC50) in series [1] is > 3 µM.

The compound `COc1cc2c(Oc3ccc(NS(=O)(=O)c4ccccc4OC(F)(F)F)cc3F)ccnc2cc1OCCCN1CCC(C)CC1` [Example D33, N-(3-Fluoro-4-{6-methoxy-7-[3-(4-methyl-piperidin-1-yl)-propoxy]-quinolin-4-yloxy}-phenyl)-2-trifluoromethoxy-benzenesulfonamide] showed a melting point of 206 to 208 °C. Further, the half-maximal inhibitory concentration (IC50) in series [1] came out at 0.068 µM.

On to `COc1cc2nccc(Oc3ccc(NS(=O)(=O)c4cc(Cl)cc(Cl)c4O)cc3OC)c2cc1OC` [Example A156, 3,5-Dichloro-N-[4-(6,7-dimethoxy-quinolin-4-yloxy)-3-methoxy-phenyl]-2-hydroxy-benzenesulfonamide], for which the melting point is > 240 °C. In series [1], the IC50 is > 1 µM.

Compound `COc1cc2c(Oc3ccc(NS(=O)(=O)c4c(F)cccc4F)cc3F)ccnc2cc1OCCCN1CCC(C)CC1` [Example D20, 2,6-Difluoro-N-(3-fluoro-4-{6-methoxy-7-[3-(4-methyl-piperidin-1-yl)-propoxy]-quinolin-4-yloxy}-phenyl)-benzenesulfonamide] came in with a melting point of 200 to 203 °C. Further, in series [1], the IC50 amounted to 0.029 µM.

`COc1cc2nccc(Oc3ccc(NS(=O)(=O)c4ccc(F)c(Cl)c4)c(F)c3)c2cc1OC` [Example A12, 3-Chloro-N-[4-(6,7-dimethoxy-quinolin-4-yloxy)-2-fluoro-phenyl]-4-fluoro-benzenesulfonamide] came in with a melting point of 208 to 210 °C. Besides, in series [1], the IC50 was found to be 1.26 µM.

Compound `COc1cc2c(Oc3ccc(NS(=O)(=O)c4cc(F)ccc4F)c(C)c3)ccnc2cc1OCCN1CCOCC1` [Example D09, 2,5-Difluoro-N-{4-[6-methoxy-7-(2-morpholin-4-yl-ethoxy)-quinolin-4-yloxy]-2-methyl-phenyl}-benzenesulfonamide] displayed a melting point of 195 to 196 °C. The IC50 in series [1] is 2.46 µM.

For the compound `COc1cc2nccc(Oc3ccc(NS(=O)(=O)c4ccc(Cl)cc4F)cc3OC)c2cc1OC` [Example A141, 4-Chloro-N-[4-(6,7-dimethoxy-quinolin-4-yloxy)-3-methoxy-phenyl]-2-fluoro-benzenesulfonamide], the IC50 in series [1] was > 10 µM.

Compound `COc1cc2nccc(Oc3ccc(NS(=O)(=O)c4cccc(F)c4C)c(F)c3)c2cc1OC` [Example A58, N-[4-(6,7-Dimethoxy-quinolin-4-yloxy)-2-fluoro-phenyl]-3-fluoro-2-methyl-benzenesulfonamide] yielded a melting point of 204 to 206 °C. The IC50 in series [1] is > 1 µM.

Compound `COc1cc2nccc(Oc3ccc(NS(=O)(=O)c4ccc(-c5ccccc5)cc4)cc3OC)c2cc1OC` [Example A142, Biphenyl-4-sulfonic acid [4-(6,7-dimethoxy-quinolin-4-yloxy)-3-methoxy-phenyl]-amide] registered a melting point of 128 to 131 °C. The 50% inhibitory concentration (IC50) in series [1] was > 10 µM.

On to `Cc1cc(Oc2ccc(NS(=O)(=O)c3csc4ccccc34)c(F)c2)c2cccc(C(F)(F)F)c2n1` [Example C18, Benzo[b]thiophene-3-sulfonic acid [2-fluoro-4-(2-methyl-8-trifluoromethyl-quinolin-4-yloxy)phenyl]-amide], for which the melting point lay in the range of 242 to 244 °C. Moreover, in series [1], the IC50 was > 10 µM.

On to `COc1cc2nccc(Oc3ccc(NS(=O)(=O)c4cc(F)ccc4F)cc3C)c2cc1OC` [Example A131, N-[4-(6,7-Dimethoxy-quinolin-4-yloxy)-3-methyl-phenyl]-2,5-difluoro-benzenesulfonamide], for which the melting point lay within 239 to 240 °C. Also, in series [1], the concentration for half-maximal inhibition (IC50) is 1.68 µM.

`COc1cc2c(Oc3ccc(NS(=O)(=O)c4cccc(-c5ccccc5)c4)cc3F)ccnc2cc1OCCCN` [Example D03, Biphenyl-3-sulfonic acid {4-[7-(3-amino-propoxy)-6-methoxy-quinolin-4-yloxy]-3-fluoro-phenyl}-amide hydrochloride]: the IC50 in series [1] was determined as 0.837 µM.

As to `COc1cc2c(Oc3ccc(NS(=O)(=O)c4ccccc4OC(F)(F)F)cc3F)ccnc2cc1OCCCN` [Example D15, N-{4-[7-(3-Amino-propoxy)-6-methoxy-quinolin-4-yloxy]-3-fluoro-phenyl}-2-trifluoromethoxy-benzenesulfonamide hydrochloride], the IC50 in series [1] is 0.364 µM.

As to `COc1cc2c(Oc3ccc(NS(=O)(=O)c4cccc5ccccc45)cc3F)ccnc2cc1OCCCN` [Example D02, Naphthalene-1-sulfonic acid {4-[7-(3-amino-propoxy)-6-methoxy-quinolin-4-yloxy]-3-fluoro-phenyl}-amide hydrochloride], in series [1], the IC50 stood at 0.695 µM.

Regarding `COc1cc2c(Oc3ccc(NS(=O)(=O)c4ccccc4C(F)(F)F)cc3F)ccnc2cc1OCCCN1CCOCC1` [Example D39, N-{3-Fluoro-4-[6-methoxy-7-(3-morpholin-4-yl-propoxy)-quinolin-4-yloxy]-phenyl}-2-trifluoromethyl-benzenesulfonamide], the melting point was 180 to 181 °C.

In the case of `COc1cc2nccc(Oc3ccc(NS(=O)(=O)c4ccccc4C)c(F)c3)c2cc1OC`, the melting point is 218 to 220 °C.

`COc1cc2c(Oc3ccc(NS(=O)(=O)c4ccccc4OC(F)(F)F)cc3F)ccnc2cc1OCCCN1CCOCC1` [Example D40, N-{3-Fluoro-4-[6-methoxy-7-(3-morpholin-4-yl-propoxy)-quinolin-4-yloxy]-phenyl}-2-trifluoromethoxy-benzenesulfonamide] displayed a melting point of 183 to 184 °C.

The compound `COc1cc2nccc(Oc3ccc(NS(=O)(=O)c4ccccc4C(F)(F)F)cc3F)c2cc1OC` gave a melting point of 80 to 83 °C.
